# In patent US8871801B2, “Method of treating acquired perforating dermatosis with cantharidin” (priority 2011, dated 2014):
# Legend:
# [1] = test system: acquired perforating dermatosis lesions; experiment: Topical cantharidin treatment of a patient with acquired perforating dermatosis (case example); assay type: in vivo, human
# Description: A person presented a six-month history of pruritic, hyperpigmented papules with central, hyperkeratotic plugs of bilateral lower extremities (FIG. 1). The trunk, head, upper extremities, volar surfaces and mucous membranes were spared. Their past medical history was significant for chronic renal failure treated for the past four years with peritoneal dialysis, a 30-year history of insulin-dependent diabetes mellitus, hypercholesterolemia, hypertension, coronary artery bypass, hypothyroidism, and hyperparathyroidism. There was no family history of similar skin lesions. […] The clinical and histopathologic features supported the diagnosis of an acquired perforating disorder associated with renal disease.
# Over the next six months, the patient was treated with intralesional triamcinolone at 10 mg/cc, topical clobetasol, diflorasone, tacrolimus, tazarotene and ammonium lactate. They declined narrowband UVB phototherapy. They were also given oral hydroxine and fexofenadine for their pruritus.
# While a therapy of fexofenadine […] bid, ammonium lactate 12% cream bid, and tazarotene 0.1% cream qd were continued, cantharidin at 0.7 wt % (Canthacur® Pharmascience Inc., Montreal, Canada) was applied to lesions on the right medial calf. Cantharidin was applied for eight hours under occlusion. The vehicle was a solution containing cantharidin 0.7 wt % in acetone, castor oil, collodion, ethoxyethanol, ethyl cellulose, and polyoxyethylene octyl phenol. “bid” means twice per day. “qd” means once per day.
# The film was then occluded using Blenderm® tape, which was kept on for 8 hours before it was washed off. Within 2 days, multiple bullae formed at the sites of cantharidin application (FIG. 2). There was vesicle formation at site of cantharidin application. The patient reported mild pain at these sites for the first 2 days. A week after application, a biopsy of the blistered lesion was taken. […] The blister roofs were then removed by paring them with a 15-blade at the edge of the lesion to find the blister plane and then lifting upwards. […] The lichenified papules and hyperkeratotic cores were no longer present and the leg was smooth.
# Pruritus was resolved in the treated lesions. Cantharidin was subsequently applied under Tegaderm® dressing (3M Corp.) occlusion to multiple lesions of both legs. […] In a five-month follow up, the patient reported no pruritus on the treated lesions. Treated lesions were smooth. […] Cantharidin provides symptomatic relief but may not prevent the formation of new lesions.
# [2] = test system: skin; conditions: general statement in the description; cited from earlier work
smiles,measurement,setting,value
"C[C@@]12C(=O)OC(=O)[C@]1(C)[C@H]1CC[C@@H]2O1 [cantharidin, Cantharidin]",biopsy of the blistered lesion (histology),[1]; a week after application of cantharidin 0.7 wt %,focal acantholysis and scattered necrotic keratinocytes
same,pruritus in the treated lesions,[1]; after cantharidin 0.7 wt % treatment and debridement,resolved
same,time to formation of multiple bullae at the sites of cantharidin application,"[1]; cantharidin 0.7 wt % solution, lesions on right medial calf, 8 hours under occlusion (Blenderm tape)",≤ 2 days
same,pain reported by the patient at application sites,"[1]; cantharidin 0.7 wt %, 8 hours under occlusion, first 2 days",mild pain
same,effectiveness of treatment on multiple lesions of both legs,[1]; cantharidin applied under Tegaderm dressing occlusion,effective in most lesions
same,appearance of treated lesions at follow up,[1]; five-month follow up,smooth
same,formation of new lesions at follow up,[1]; five-month follow up,A few new lesions formed
same,pruritus on the treated lesions at follow up,[1]; five-month follow up,no pruritus
same,time to blister formation after topical treatment,[2],24 to 48 h
